Drawing on ChEMBL document CHEMBL5725391, “1,3-diaminocyclopentane carboxamide derivatives” (2017), this text covers IC50 for 7 compounds.

Molecules are shown by their SMILES.

The target in this experiment is Fatty acid synthase (Homo sapiens, UniProt P49327). The experiment in a line: Biochemical Assay of FASN: The biochemical FASN activity testing was performed as 384 well two-time-point kinetic fluorescence intensity assay format in Greiner low volume medium binding 384-well black microtiter plates in a total assay volume of 8 μl and was used for high throughput screen. In each well 3 μl 40 nM human recombinant full-length fatty acid synthase (produced in-house in SF9 cells) were dispensed in the following assay buffer: 50 mM potassium phosphate buffer pH 7.0, 0.005% (w/v) BSA, 2 mM Glutathione, 0.02% Tween-20. Then 2 μl of 200 μM NADPH in assay buffer were added, followed by the addition of the test compounds in 10 dilution concentrations starting with 30 μM (final concentration) to get a final DMSO content of 1% (v/v). The mixture was incubated for at least 15 min at room temperature. After the pre-incubation the enzymatic reaction was started by the addition of 2 μl substrate solution (80 μM acetyl-CoA, 240 μM malonyl-CoA). A first fluorescence intensity measurement (time point one) was performed with an Envision multimode reader (Perkin Elmer LAS Germany GmbH) at excitation wavelength 340 nm (lamp mode) and emission wavelength 460 nm. The reaction was incubated for 30 minutes at room temperature. After this the fluorescence intensity was measured again in the Envision using the same parameters as described above (second time point measurement). The data were analysed by subtracting the first time point measurement value from the second time point measurement value (after the enzymatic reaction). The differences of the emission signals were determined. These reflect directly the conversion rate of NADPH. The full value used was the inhibitor-free reaction. A pharmacological zero value was used like GSK837149A (Sigma-Aldrich) in a final concentration of 5-10 μM. The inhibitory values (IC50) were determined using either the program Symyx Assay Explorer® or Condosseo® from GeneData.
Chain of Fatty acid synthase (P49327 whole entry): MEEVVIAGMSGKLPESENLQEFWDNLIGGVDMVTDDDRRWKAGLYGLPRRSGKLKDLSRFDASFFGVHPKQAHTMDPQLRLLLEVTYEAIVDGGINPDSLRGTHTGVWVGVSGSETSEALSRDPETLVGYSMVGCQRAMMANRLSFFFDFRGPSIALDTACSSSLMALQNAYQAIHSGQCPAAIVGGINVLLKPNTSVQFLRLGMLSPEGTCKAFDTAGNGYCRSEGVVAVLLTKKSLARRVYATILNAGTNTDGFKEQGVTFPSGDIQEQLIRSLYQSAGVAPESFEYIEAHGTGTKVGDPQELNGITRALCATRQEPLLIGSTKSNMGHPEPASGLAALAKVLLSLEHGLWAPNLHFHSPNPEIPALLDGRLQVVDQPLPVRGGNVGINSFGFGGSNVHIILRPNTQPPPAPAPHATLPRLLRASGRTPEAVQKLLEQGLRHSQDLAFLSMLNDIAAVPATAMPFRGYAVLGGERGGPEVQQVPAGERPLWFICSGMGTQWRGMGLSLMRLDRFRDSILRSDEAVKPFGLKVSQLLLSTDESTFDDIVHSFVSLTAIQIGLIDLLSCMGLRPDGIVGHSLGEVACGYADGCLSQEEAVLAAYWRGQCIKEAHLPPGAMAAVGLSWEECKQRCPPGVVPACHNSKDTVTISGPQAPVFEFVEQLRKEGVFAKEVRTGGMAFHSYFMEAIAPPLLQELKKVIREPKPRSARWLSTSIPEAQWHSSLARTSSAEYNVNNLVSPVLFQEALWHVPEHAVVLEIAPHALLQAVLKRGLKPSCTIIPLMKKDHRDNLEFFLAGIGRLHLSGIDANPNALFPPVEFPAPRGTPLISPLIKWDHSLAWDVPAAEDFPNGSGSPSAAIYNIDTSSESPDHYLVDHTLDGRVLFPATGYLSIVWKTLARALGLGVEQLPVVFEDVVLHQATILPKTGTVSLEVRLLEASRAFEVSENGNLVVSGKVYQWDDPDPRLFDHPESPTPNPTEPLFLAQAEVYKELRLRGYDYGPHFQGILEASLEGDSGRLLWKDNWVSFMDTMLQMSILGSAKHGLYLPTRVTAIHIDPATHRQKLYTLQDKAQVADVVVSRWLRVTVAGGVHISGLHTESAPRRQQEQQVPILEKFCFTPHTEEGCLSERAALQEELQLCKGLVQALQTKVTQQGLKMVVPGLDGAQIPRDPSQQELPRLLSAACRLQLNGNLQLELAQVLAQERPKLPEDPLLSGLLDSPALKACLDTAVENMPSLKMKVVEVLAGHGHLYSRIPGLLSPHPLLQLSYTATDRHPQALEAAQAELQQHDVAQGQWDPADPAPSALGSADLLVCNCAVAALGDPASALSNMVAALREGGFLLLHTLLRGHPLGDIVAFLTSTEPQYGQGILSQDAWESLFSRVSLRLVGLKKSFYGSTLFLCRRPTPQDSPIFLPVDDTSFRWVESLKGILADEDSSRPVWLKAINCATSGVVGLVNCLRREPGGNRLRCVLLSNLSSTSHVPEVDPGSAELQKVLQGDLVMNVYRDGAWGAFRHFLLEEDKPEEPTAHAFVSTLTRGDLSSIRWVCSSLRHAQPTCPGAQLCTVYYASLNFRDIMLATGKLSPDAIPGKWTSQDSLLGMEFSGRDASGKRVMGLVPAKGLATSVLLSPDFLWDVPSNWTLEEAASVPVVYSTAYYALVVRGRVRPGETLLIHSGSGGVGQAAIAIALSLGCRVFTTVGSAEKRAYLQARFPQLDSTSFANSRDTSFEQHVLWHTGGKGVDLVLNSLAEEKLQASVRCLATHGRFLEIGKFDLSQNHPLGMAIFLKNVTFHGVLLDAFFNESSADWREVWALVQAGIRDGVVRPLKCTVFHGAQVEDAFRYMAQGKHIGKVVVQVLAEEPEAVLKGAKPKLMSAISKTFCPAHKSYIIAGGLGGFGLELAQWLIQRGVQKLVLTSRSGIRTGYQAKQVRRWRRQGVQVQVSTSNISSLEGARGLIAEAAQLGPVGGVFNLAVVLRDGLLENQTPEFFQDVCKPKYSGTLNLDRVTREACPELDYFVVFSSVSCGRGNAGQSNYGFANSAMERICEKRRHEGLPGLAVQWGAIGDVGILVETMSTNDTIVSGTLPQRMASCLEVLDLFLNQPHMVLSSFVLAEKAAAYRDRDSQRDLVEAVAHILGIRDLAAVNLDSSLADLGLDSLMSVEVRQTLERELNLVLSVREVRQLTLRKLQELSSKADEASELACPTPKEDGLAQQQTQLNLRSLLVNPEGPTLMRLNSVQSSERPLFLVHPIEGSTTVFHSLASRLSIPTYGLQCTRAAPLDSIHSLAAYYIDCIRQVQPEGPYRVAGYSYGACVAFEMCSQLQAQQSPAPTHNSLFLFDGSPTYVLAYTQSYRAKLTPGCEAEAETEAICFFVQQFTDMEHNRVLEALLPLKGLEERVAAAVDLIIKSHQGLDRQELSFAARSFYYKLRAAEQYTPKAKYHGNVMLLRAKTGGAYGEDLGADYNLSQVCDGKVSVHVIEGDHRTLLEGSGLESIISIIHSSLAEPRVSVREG
As a reminder, the IC50 is the concentration at which inhibition is half-maximal. For the compound `CCC(=O)N[C@H]1CC[C@@H](N(C)C(=O)c2ccc(-c3cc(F)c4[nH]cc(C(N)=O)c4c3)cc2)C1`, the concentration for half-maximal inhibition (IC50) is < 0.3 µM.
For `CN(C(=O)c1ccc(-c2nc3ccccc3o2)cc1F)[C@@H]1CC[C@H](NC(=O)[C@@H]2CCCO2)C1` the value was < 0.3 µM; for `CCC(=O)N[C@H]1CC[C@@H](N(C)C(=O)c2cnc(-c3ccc4[nH]ccc4c3)s2)C1`, < 0.3 µM; for `CCC(=O)N[C@H]1CC[C@@H](N(C)C(=O)c2sc(-c3ccc4[nH]ccc4c3)nc2C)C1`, < 0.3 µM.
As for `CCC(=O)N[C@H]1CC[C@@H](N(C)C(=O)c2ccc(-c3ccc4[nH]cc(F)c4c3)nc2)C1`, the IC50 was < 0.3 µM.
As for `CCC(=O)N[C@H]1CC[C@@H](N(C)C(=O)c2ccc(-c3ccc(C#N)cc3F)cc2)C1`, the 50% inhibitory concentration (IC50) is < 0.3 µM.
On to `CCC(=O)N[C@H]1CC[C@@H](N(C)C(=O)c2ccc(-c3cccc4[nH]ncc34)cc2)C1`, for which the 50% inhibitory concentration (IC50) was < 0.3 µM.
